Source: US20260374754A1, “N-((ISOQUINOLIN-6-YL)METHYL)-1H-PYRAZOLE-4-CARBOXAMIDE DERIVATIVES AS PLASMA KALLIKREIN INHIBITORS FOR THE TREATMENT OF HEREDITARY ANGIODEMA” (Takeda Pharmaceutical Company Limited, priority 2022, published 2026)

target: human activated kallikrein enzyme (Homo sapiens, UniProt P03952); assay: Inhibition of human activated plasma kallikrein, fluorogenic PFR-AMC substrate, 500 pM enzyme format; type: biochemical; details: 500 pM activated kallikrein; 300 μM PFR-AMC; 30 min preincubation; 10 min room temperature; pH 7.5; read-out: Primary Dose Response Assay: Average EC50
Sequence (P03952 391-638 limits assumed): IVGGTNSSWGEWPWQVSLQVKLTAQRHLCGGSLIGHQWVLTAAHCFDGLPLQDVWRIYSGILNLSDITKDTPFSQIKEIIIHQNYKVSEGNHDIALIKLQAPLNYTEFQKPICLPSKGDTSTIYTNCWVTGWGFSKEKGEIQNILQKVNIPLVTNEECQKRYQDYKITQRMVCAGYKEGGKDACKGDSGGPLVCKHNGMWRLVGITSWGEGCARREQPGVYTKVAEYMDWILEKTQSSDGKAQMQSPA
Sequence (P03952 20-390 partner limits assumed): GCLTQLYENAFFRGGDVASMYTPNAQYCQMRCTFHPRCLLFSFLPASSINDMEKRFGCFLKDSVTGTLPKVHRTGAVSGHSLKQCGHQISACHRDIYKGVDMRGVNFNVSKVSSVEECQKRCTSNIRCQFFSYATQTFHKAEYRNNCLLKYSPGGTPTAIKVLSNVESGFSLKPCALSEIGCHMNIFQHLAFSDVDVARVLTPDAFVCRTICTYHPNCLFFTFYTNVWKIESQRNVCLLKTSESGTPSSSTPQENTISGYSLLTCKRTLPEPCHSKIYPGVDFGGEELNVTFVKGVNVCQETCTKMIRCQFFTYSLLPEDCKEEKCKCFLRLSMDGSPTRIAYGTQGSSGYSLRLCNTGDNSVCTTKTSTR
Outline: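 Using fluorogenic PFR-AMC at 300 μM, cleavage by 500 pM human activated kallikrein ran 10 min at room temperature, read at 460 nm emission (380 nm excitation). Enzyme and compounds were first preincubated 30 min in 20 mM Tris pH 7.5, 150 mM NaCl, 1 mM EDTA, 0.1% PEG-400, 0.1% Triton X-100.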

| EC50 | Compound |
| --- | --- |
| < 1 nM | Cc1cc2c(N)nccc2c(C)c1CNc1cc(NCc2ccc3ncc(Cl)cc3c2)ncn1 [Example 309, N^4-((1-amino-5,7-dimethylisoquinolin-6-yl)methyl)-N^6-((3-chloroquinolin-6-yl)methyl)pyrimidine-4,6-diamine] |
| 1 to 10 nM | Cc1cc2c(N)nccc2c(C)c1CNc1cc(OCc2ccc(-n3ccccc3=O)cc2)cnn1 [Example 438, 1-(4-(((6-(((1-amino-5,7-dimethylisoquinolin-6-yl)methyl)amino)pyridazin-4-yl)oxy)methyl)phenyl)pyridin-2(1H)-one] |
| 1 to 10 nM | Cc1cc2c(N)nccc2c(C)c1CNC(=O)c1cnn(Cc2ccc3ncc(O)cc3c2)c1 [Example 164, N-((1-amino-5,7-dimethylisoquinolin-6-yl)methyl)-1-((3-hydroxyquinolin-6-yl)methyl)-1H-pyrazole-4-carboxamide] |
| < 1 nM | Cc1cnc2ccc(CNc3cc(NCc4c(C)cc5c(N)nccc5c4C)ncn3)cc2c1 [Example 336, N^4-((1-amino-5,7-dimethylisoquinolin-6-yl)methyl)-N^6-((3-methylquinolin-6-yl)methyl)pyrimidine-4,6-diamine] |
| 1 to 10 nM | Cc1cc2c(N)nccc2c(C)c1CNc1nccc2cn(Cc3ccc(Cn4cccn4)cc3)nc12 [Example 260, 6-(((2-(4-((1H-pyrazol-1-yl)methyl)benzyl)-2H-pyrazolo[3,4-c]pyridin-7-yl)amino)methyl)-5,7-dimethylisoquinolin-1-amine] |
| < 1 nM | Cc1cc2c(N)nccc2c(C)c1CNc1cc(NC(C)c2ccc(Cc3ccccn3)cc2)ncn1 (centres unmarked) [Example 366, N^4-((1-amino-5,7-dimethylisoquinolin-6-yl)methyl)-N^6-(1-(4-(pyridin-2-ylmethyl)phenyl)ethyl)pyrimidine-4,6-diamine] |
| 1 to 10 nM | Cc1cc2c(N)nccc2c(C)c1CNc1cc(OCc2ccc(Cc3cccn(C)c3=O)cc2)ncn1 [Example 299, 3-(4-(((6-(((1-amino-5,7-dimethylisoquinolin-6-yl)methyl)amino)pyrimidin-4-yl)oxy)methyl)benzyl)-1-methylpyridin-2(1H)-one] |
| 100 to 1000 nM | Cc1cc2c(N)nccc2c(C)c1CNc1cc(OCc2ccc(Cn3cccn3)nc2)cnn1 [Example 445, 6-(((5-((6-((1H-pyrazol-1-yl)methyl)pyridin-3-yl)methoxy)pyridazin-3-yl)amino)methyl)-5,7-dimethylisoquinolin-1-amine] |
| 1 to 10 nM | Cc1cc2c(N)nccc2c(C)c1CNC(=O)c1cnn(Cc2ccc3cnccc3c2)c1 [Example 74, N-((1-amino-5,7-dimethylisoquinolin-6-yl)methyl)-1-(isoquinolin-6-ylmethyl)-1H-pyrazole-4-carboxamide] |
| < 1 nM | C/C=C(/c1ccc(CNc2cc(NCc3c(C)cc4c(N)nccc4c3C)ncn2)cc1)n1cccn1 [Example I-483, (Z)—N^4-(4-(1-(1H-pyrazol-1-yl)prop-1-en-1-yl)benzyl)-N^6-((1-amino-5,7-dimethylisoquinolin-6-yl)methyl)pyrimidine-4,6-diamine] |
| 100 to 1000 nM | Cc1cc2c(N)nccc2c(C)c1CNc1cc2c(ccn2Cc2ccc3ncccc3c2)cn1 [Example 517, 5,7-dimethyl-6-(((1-(quinolin-6-ylmethyl)-1H-pyrrolo[3,2-c]pyridin-6-yl)amino)methyl)isoquinolin-1-amine] |
| 10 to 100 nM | Cc1cc2c(N)nccc2c(C)c1CNc1cc(OCc2ccc3ccccc3c2)cnn1 [Example 252, 5,7-dimethyl-6-(((5-(naphthalen-2-ylmethoxy)pyridazin-3-yl)amino)methyl)isoquinolin-1-amine] |
| 1 to 10 nM | Cc1cc2c(N)nccc2c(C)c1CNc1cc(N(C)Cc2ccc3ncccc3c2)cnn1 [Example 428, N^3-((1-amino-5,7-dimethylisoquinolin-6-yl)methyl)-N^5-methyl-N^5-(quinolin-6-ylmethyl)pyridazine-3,5-diamine] |
| 10 to 100 nM | Cc1cc2c(N)nccc2c(C)c1CNc1cc(NCc2ccc3ccccc3n2)ncn1 [Example 306, N^4-((1-amino-5,7-dimethylisoquinolin-6-yl)methyl)-N^6-(quinolin-2-ylmethyl)pyrimidine-4,6-diamine] |

Further lines, the compound ahead of its results:

| Compound | EC50 |
| --- | --- |
| Cc1cc2c(N)nccc2c(C)c1CNc1cc(OCc2ccc(CC(=O)N(C)C)cc2)ncn1 [Example I-466, 2-(4-(((6-(((1-amino-5,7-dimethylisoquinolin-6-yl)methyl)amino)pyrimidin-4-yl)oxy)methyl)phenyl)-N,N-dimethylacetamide] | 1 to 10 nM |
| Cc1cc2c(N)nccc2c(C)c1CNC(=O)c1cnn(Cc2ccc(CC(=O)N3C(C)CCC3C)cc2)c1 (centres unmarked) [Example 218, N-((1-amino-5,7-dimethylisoquinolin-6-y1)methyl)-1-(4-(2-(2,5-dimethylpyrrolidin-1-yl)-2-oxoethyl)benzyl)-1H-pyrazole-4-carboxamide] | 1 to 10 nM |
| Cc1cc2c(N)nccc2c(C)c1CNC(=O)c1cnn(Cc2cc3cc(Br)ccc3s2)c1 [Example 51, N-((1-amino-5,7-dimethylisoquinolin-6-yl)methyl)-1-((5-bromobenzo[b]thiophen-2-yl)methyl)-1H-pyrazole-4-carboxamide] | < 1 nM |
| Cc1cc2c(N)nccc2c(C)c1CNC(=O)c1cnn(Cc2ccc(Oc3cccn(C)c3=O)cc2)c1 [Example 18, N-((1-amino-5,7-dimethylisoquinolin-6-yl)methyl)-1-(4-((1-methyl-2-oxo-1,2-dihydropyridin-3-yl)oxy)benzyl)-1H-pyrazole-4-carboxamide] | < 1 nM |
| Cc1cc2c(N)nccc2c(C)c1CNC(=O)c1nnc(Cc2cn3cc(C4CC4)ccc3n2)o1 [Example 190, N-((1-amino-5,7-dimethylisoquinolin-6-yl)methyl)-5-((6-cyclopropylimidazo[1,2-a]pyridin-2-yl)methyl)-1,3,4-oxadiazole-2-carboxamide] | < 1 nM |
| Cc1cc2nc(Cn3cc(C(=O)NCc4c(C)cc5c(N)nccc5c4C)cn3)cn2cc1C1CC1 [Example 146, N-((1-amino-5,7-dimethylisoquinolin-6-yl)methyl)-1-((6-cyclopropyl-7-methylimidazo[1,2-a]pyridin-2-yl)methyl)-1H-pyrazole-4-carboxamide] | < 1 nM |
| Cc1cc2c(N)nccc2c(C)c1CNC(=O)c1cnn(CC(=O)N(C)c2ccccc2)c1 [Compound 155] | > 1000 nM |
| Cc1cc2c(N)nccc2c(C)c1CNC(=O)c1cnn(Cc2ccc(CC(=O)N(C)Cc3ccccc3)cc2)c1 [Example 220, N-((1-amino-5,7-dimethylisoquinolin-6-yl)methyl)-1-(4-(2-(benzyl(methyl)amino)-2-oxoethyl)benzyl)-1H-pyrazole-4-carboxamide] | 1 to 10 nM |
| Cc1cc2c(N)nccc2c(C)c1CNc1cc(NCc2cn3cc(C(F)(F)F)ccc3n2)ncn1 [Example 329, N^4-((1-amino-5,7-dimethylisoquinolin-6-yl)methyl)-N^6-((6-(trifluoromethyl)imidazo[1,2-a]pyridin-2-yl)methyl)pyrimidine-4,6-diamine] | < 1 nM |
| CCCCc1cc(COc2cc(NCc3c(C)cc4c(N)nccc4c3C)ncn2)cc2cc(Cl)c[n+]([O-])c12 [Example 399, 6-(((6-(((1-amino-5,7-dimethylisoquinolin-6-yl)methyl)amino)pyrimidin-4-yl)oxy)methyl)-8-butyl-3-chloroquinoline 1-oxide] | 10 to 100 nM |
| Cc1cc2c(N)nccc2c(C)c1CNC(=O)c1cnn(Cc2ncccn2)c1 [Example 83, N-((1-amino-5,7-dimethylisoquinolin-6-yl)methyl)-1-(pyrimidin-2-ylmethyl)-1H-pyrazole-4-carboxamide] | 100 to 1000 nM |
| COc1ccc(Cn2cc(C(=O)NCc3c(C)cc4c(N)nccc4c3C)cn2)cc1 [Example 91, N-((1-amino-5,7-dimethylisoquinolin-6-yl)methyl)-1-(4-methoxybenzyl)-1H-pyrazole-4-carboxamide] | 10 to 100 nM |
| Cc1cc2c(N)nccc2c(C)c1CNC(=O)c1cnn(Cc2ccc(CC(=O)N3C[C@@H]4[C@H](CO)[C@@H]4C3)cc2)c1 [Example 209, N-((1-amino-5,7-dimethylisoquinolin-6-y1)methyl)-1-(4-(2-((1R,5S,6s)-6-(hydroxymethyl)-3-azabicyclo[3.1.0]hexan-3-y1)-2-oxoethyl)benzyl)-1H-pyrazole-4-carboxamide] | < 1 nM |
| Cc1cc2c(N)nccc2c(C)c1CNC(=O)c1cnn(Cc2ccc(CC(=O)N3CC4CC4C3)c(Cl)c2)c1 (centres unmarked) [Example I-474, 1-(4-(2-(3-azabicyclo[3.1.0]hexan-3-yl)-2-oxoethyl)-3-chlorobenzyl)-N-((1-amino-5,7-dimethylisoquinolin-6-yl)methyl)-1H-pyrazole-4-carboxamide] | < 1 nM |
| Cc1cc2c(N)nccc2c(C)c1CNc1cc(NCc2ccc(OCc3nccs3)cc2)ncn1 [Example 356, N^4-((1-amino-5,7-dimethylisoquinolin-6-yl)methyl)-N^6-(4-(thiazol-2-ylmethoxy)benzyl)pyrimidine-4,6-diamine] | < 1 nM |
| Cc1cc2c(N)nccc2c(C)c1CNC(=O)c1cn(Cc2ccc(CC(=O)N3CC4CC4C3)cc2)nc1C(F)(F)F (centres unmarked) [Example 182, 1-(4-(2-(3-azabicyclo[3.1.0]hexan-3-y1)-2-oxoethyl)benzyl)-N-((1-amino-5,7-dimethylisoquinolin-6-yl)methyl)-3-(trifluoromethyl)-1H-pyrazole-4-carboxamide] | < 1 nM |
| Cc1cc2c(N)nccc2c(C)c1CNC(=O)c1cnn(Cc2cn3cc(C4CC4(C)C)ccc3n2)c1 (centres unmarked) [Example 176, N-((1-amino-5,7-dimethylisoquinolin-6-yl)methyl)-1-((6-(2,2-dimethylcyclopropyl)imidazo[1,2-a]pyridin-2-yl)methyl)-1H-pyrazole-4-carboxamide] | 1 to 10 nM |
| CC(C)=Cc1ccc2nc(Cn3cc(C(=O)NCc4c(C)cc5c(N)nccc5c4C)cn3)cn2c1 [Example 179, N-((1-amino-5,7-dimethylisoquinolin-6-yl)methyl)-1-((6-(2-methylprop-1-en-1-yl)imidazo[1,2-a]pyridin-2-y1)methyl)-1H-pyrazole-4-carboxamide] | 1 to 10 nM |
